According to patent US7569578B2, “Heterocyclic anti-migraine agents” (Bristol-Meyers Squibb Company, priority 2003, dated 2009):

Target: T1, Human CGRP1 Receptor (Homo sapiens, UniProt O60894+Q16602)
T1 construct: endogenous in cells; host or cells: SK-N-MC cells (membrane homogenate)
Assay: CGRP Binding Assay ([125I]-CGRP radioligand displacement, SK-N-MC membrane homogenate)
Settings: [125I]-CGRP displacement, SK-N-MC homogenate, room temperature 2 h; read-out: Human CGRP1 Receptor IC50
Method: Tissue Culture. SK-N-MC cells were grown at 37° C. in 5% CO2 as a monolayer in medium consisting of MEM with Earle's salts and L-glutamine (Gibco) supplemented with 10% fetal bovine serum (Gibco).
Cell Pellets. […] The cells were transferred from plates to polypropylene tubes (16×100 mm) and homogenized using a polytron. Homogenates were centrifuged at 32,000×g for 30 min. The pellets were resuspended in cold hypotonic lysis buffer with 0.1% mammalian protease inhibitor cocktail (Sigma) and assayed for protein concentration. The SK-N-MC homogenate was then aliquoted and stored at −80° C. until needed.
Radioligand Binding Assay. The compounds of invention were solubilized and carried through serial dilutions using 100% DMSO. Aliquots from the compound serial dilutions were further diluted 25 fold into assay buffer (50 mM Tris-Cl pH 7.5, 5 mM MgCl2, 0.005% Triton X-100) and transferred (volume 50 μl) into 96 well assay plates. […] SK-N-MC pellets were thawed, diluted in assay buffer with fresh 0.1% mammalian protease inhibitor cocktail (Sigma), and homogenized again. SK-N-MC homogenate (5 μg/well) was added in a volume of 100 μl. The assay plates were then incubated at room temperature for 2 h. Assays were stopped by addition of excess cold wash buffer (20 mM Tris-Cl pH 7.5, 0.1% BSA) immediately followed by filtration over glass fiber filters (Whatman GF/B) previously soaked in 0.5% PEI. Non-specific binding was defined with 1 μM beta-CGRP. Protein bound radioactivity was determined using a gamma or scintillation counter.

T1 sequence (Q16602 23-461): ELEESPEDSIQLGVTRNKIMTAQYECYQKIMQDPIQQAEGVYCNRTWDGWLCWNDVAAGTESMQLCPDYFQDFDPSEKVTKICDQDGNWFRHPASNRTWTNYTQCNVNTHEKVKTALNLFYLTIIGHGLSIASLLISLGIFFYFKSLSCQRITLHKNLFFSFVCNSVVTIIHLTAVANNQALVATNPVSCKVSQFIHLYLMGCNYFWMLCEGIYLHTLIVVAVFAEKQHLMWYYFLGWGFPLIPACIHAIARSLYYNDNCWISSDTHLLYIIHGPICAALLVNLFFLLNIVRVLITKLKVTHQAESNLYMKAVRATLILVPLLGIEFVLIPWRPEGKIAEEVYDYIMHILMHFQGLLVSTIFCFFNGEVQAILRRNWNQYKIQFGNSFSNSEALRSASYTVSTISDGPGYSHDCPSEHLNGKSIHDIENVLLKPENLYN
T1 sequence (O60894 27-148): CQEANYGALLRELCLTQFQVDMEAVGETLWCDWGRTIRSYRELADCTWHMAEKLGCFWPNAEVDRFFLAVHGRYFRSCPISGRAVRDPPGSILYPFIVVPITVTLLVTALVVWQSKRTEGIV

SMILES	IC50 [nM]
Cc1cc(CC(NC(=O)N2CCC(N3Cc4ccccc4NC3=O)CC2)c2cc(F)ccn2)cc2cn[nH]c12 (racemic) [Example 33, (±)-N-(1-(4-Fluoropyridin-2-yl)-2-(7-methyl-1H-indazol-5-yl)ethyl)-4-(2-oxo-1,2-dihydroquinazolin-3(4H)-yl)piperidine-1-carboxamide]	< 10
Cc1cc(CC(NC(=O)N2CCC(N3Cc4ccccc4NC3=O)CC2)c2nccn2C)cc2cn[nH]c12 (racemic) [Example 66, (±)-N-(1-(1-Methyl-1H-imidazol-2-yl)-2-(7-methyl-1H-indazol-5-yl)ethyl)-4-(2-oxo-1,2-dihydroquinazolin-3(4H)-yl)piperidine-1-carboxamide]	< 10
Cc1cc(CC(NC(=O)N2CCC(N3Cc4cccc(F)c4NC3=O)CC2)c2nnnn2CC2CCNCC2)cc2cn[nH]c12 (racemic) [Example 81, (±)-4-(8-Fluoro-2-oxo-1,2-dihydroquinazolin-3(4H)-yl)-N-(2-[7-methyl-1H-indazol-5-yl]-1-[1-(piperidin-4-ylmethyl)-1H-tetrazol-5-yl]ethyl)piperidin-1-carboxamide]	< 10
Cc1cc(CC(NC(=O)N2CCC(N3Cc4ccccc4NC3=O)CC2)c2nccn2Cc2ccccc2F)cc2cn[nH]c12 (racemic) [Example 71, (±)-N-(1-(1-(2-Fluorobenzyl)-1H-imidazol-2-yl)-2-(7-methyl-1H-indazol-5-yl)ethyl)-4-(2-oxo-1,2-dihydroquinazolin-3(4H)-yl)piperidine-1-carboxamide]	< 10
Cc1cccnc1C(CC(=O)N1CCC(N2Cc3ccccc3NC2=O)CC1)Cc1cc(C)c2[nH]ncc2c1 (racemic) [Example 25, (±)-3-(1-(4-(7-Methyl-1H-indazol-5-yl)-3-(3-methylpyridin-2-yl)butanoyl)piperidin-4-yl)-3,4-dihydroquinazolin-2(1H)-one]	< 10
CCn1c(C(CC(=O)N2CCC(N3Cc4ccccc4NC3=O)CC2)CC2=CC3C=NNC3C(C)=C2)nc2ccccc21 (centres unmarked) [Example 99, 3-(1-(3-(1-Ethyl-1H-benzo [d]imidazol-2-yl)-4-(7-methyl-3a,7a-dihydro-1H-indazol-5-yl)butanoyl)piperidin-4-yl)-3,4-dihydroquinazolin-2(1H)-one]	< 10
Cc1cc(CC(NC(=O)N2CCC(N3Cc4ccccc4NC3=O)CC2)c2nc(Cc3ccncc3)no2)cc2cn[nH]c12 (racemic) [Example 12, (±)-4-(2-Oxo-1,4-dihydro-2H-quinazolin-3-yl)-piperidine-1-carboxylic acid [2-(7-methyl-1H-indazol-5-yl)-1-(3-pyridin-4-ylmethyl-[1,2,4]oxadiazol-5-yl)-ethyl]-amide]	10 to 100
Cc1cc(CC(OC(=O)N2CCC(N3Cc4ccccc4NC3=O)CC2)c2cc3ccccc3o2)cc2cn[nH]c12 (centres unmarked) [Example 64, 1-(Benzofuran-2-yl)-2-(7-methyl-1H-indazol-5-yl)ethyl 4-(2-oxo-1,2-dihydroquinazolin-3(4H)-yl)piperidine-1-carboxylate]	10 to 100
Cc1cc(CC(NC(=O)N2CCC(N3Cc4ccccc4NC3=O)CC2)c2ncc[nH]2)cc2cn[nH]c12 (racemic) [Example 65, (±)-N-(1-(1H-Imidazol-2-yl)-2-(7-methyl-1H-indazol-5-yl)ethyl)-4-(2-oxo-1,2-dihydroquinazolin-3(4H)-yl)piperidine-1-carboxamide]	10 to 100
Cc1noc(C(Cc2cc(C)c3[nH]ncc3c2)NC(=O)N2CCC(N3Cc4ccccc4NC3=O)CC2)n1 (racemic) [Example 11, (±)-4-(2-Oxo-1,4-dihydro-2H-quinazolin-3-yl)-piperidine-1-carboxylic acid [2-(7-methyl-1H-indazol-5-yl)-1-(3-methyl-[1,2,4]oxadiazol-5-yl)-ethyl]-amide]	10 to 100
Cc1cc(CC(OC(=O)N2CCC(N3Cc4ccccc4NC3=O)CC2)c2cccc(Br)n2)cc2cn[nH]c12 (racemic) [Example 40, (±)-1-(6-Bromopyridin-2-yl)-2-(7-methyl-1H-indazol-5-yl)ethyl 4-(2-oxo-1,2-dihydroquinazolin-3(4H)-yl)piperidine-1-carboxylate]	< 10
Cc1cc(CC(OC(=O)N2CCC(N3Cc4ccccc4NC3=O)CC2)c2ccncc2)cc2cn[nH]c12 (centres unmarked) [Example 57, 2-(7-Methyl-1H-indazol-5-yl)-1-(pyridin-4-yl)ethyl 4-(2-oxo-1,2-dihydroquinazolin-3(4H)-yl)piperidine-1-carboxylate]	100 to 1000
Cc1cc(C)nc(C(Cc2cc(C)c3[nH]ncc3c2)OC(=O)N2CCC(c3cc4ccccc4[nH]c3=O)CC2)n1 (centres unmarked) [Example 62, 1-(4,6-Dimethylpyrimidin-2-yl)-2-(7-methyl-1H-indazol-5-yl)ethyl 4-(2-oxo-1,2-dihydroquinolin-3-yl)piperidine-1-carboxylate]	100 to 1000
Cc1cc(CC(NC(=O)N2CCC(N3Cc4ccccc4NC3=O)CC2)c2nccn2Cc2cccc(C#N)c2)cc2cn[nH]c12 (racemic) [Example 74, (±)-N-(1-(1-(3-Cyanobenzyl)-1H-imidazol-2-yl)-2-(7-methyl-1H-indazol-5-yl)ethyl)-4-(2-oxo-1,2-dihydroquinazolin-3(4H)-yl)piperidine-1-carboxamide]	< 10
Cc1cc(C[C@@H](NC(=O)N2CCC(N3Cc4ccccc4NC3=O)CC2)c2ncc3ccccn23)cc2cn[nH]c12 [Example 85, (R)-N-(1-(H-Imidazo[1,5-a]pyridin-3-yl)-2-(7-methyl-1H-indazol-5-yl)ethyl)-4-(2-oxo-1,2-dihydroquinazolin-3(4H)-yl)piperidine-1-carboxamide]	< 10
Cc1cc(CC(NC(=O)N2CCC(N3Cc4ccccc4NC3=O)CC2)c2nccn2Cc2cc(F)cc(F)c2)cc2cn[nH]c12 (racemic) [Example 69, (±)-N-(1-(1-(3,5-Difluorobenzyl)-1H-imidazol-2-yl)-2-(7-methyl-1H-indazol-5-yl)ethyl)-4-(2-oxo-1,2-dihydroquinazolin-3(4H)-yl)piperidine-1-carboxamide]	< 10
Cc1cc(CC(CC(=O)N2CCC(N3Cc4ccccc4NC3=O)CC2)c2nc(Cc3ccncc3)no2)cc2cn[nH]c12 (racemic) [Example 6, (±)-3-{1-[4-(7-Methyl-1H-indazol-5-yl)-3-(3-pyridin-4-ylmethyl-[1,2,4]oxadiazol-5-yl)-butyryl]-piperidin-4-yl}-3,4-dihydro-1H-quinazolin-2-one]	10 to 100
Cc1cc(CC(NC(=O)N2CCC(N3Cc4ccccc4NC3=O)CC2)c2nccn2Cc2cccc(F)c2)cc2cn[nH]c12 (racemic) [Example 68, (±)-N-(1-(1-(3-Fluorobenzyl)-1H-imidazol-2-yl)-2-(7-methyl-1H-indazol-5-yl)ethyl)-4-(2-oxo-1,2-dihydroquinazolin-3(4H)-yl)piperidine-1-carboxamide]	< 10
Cc1cc(CC(CC(=O)N2CCC(N3Cc4ccccc4NC3=O)CC2)c2nc(CN(C)C)no2)cc2cn[nH]c12 (racemic) [Example 7, (±)-3-{1-[3-(3-Dimethylaminomethyl-[1,2,4]oxadiazol-5-yl)-4-(7-methyl-1H-indazol-5-yl)-butyryl]-piperidin-4-yl}-3,4-dihydro-1H-quinazolin-2-one]	10 to 100
Cc1cc(CC(NC(=O)N2CCC(N3Cc4ccccc4NC3=O)CC2)c2nccn2Cc2ccccn2)cc2cn[nH]c12 (racemic) [Example 92, (±)-N-(2-(7-Methyl-1H-indazol-5-yl)-1-(1-(pyridin-2-ylmethyl)-1H-imidazol-2-yl)ethyl)-4-(2-oxo-1,2-dihydroquinazolin-3(4H)-yl)piperidine-1-carboxamide]	< 10
